Converted amounts (≈) assume the structure as drawn.
These compounds were tested on Bacillus anthracis (assay: Antibacterial activity against Bacillus anthracis Sterne after 16 hrs by alamar blue broth microdilution technique).
Format: functional
CCCC1c2ccccc2C=NN1C(=O)/C=C/c1cc(Cc2cnc(N)nc2N)cc(OC)c1OC (racemic) gave an MIC of 1 µg/mL (≈ 2.06 µM).
COc1cc(Cc2cnc(N)nc2N)cc(/C=C/C(=O)N2N=Cc3ccccc3C2C(C)C)c1OC (racemic) was tested, and the MIC was 1 µg/mL (≈ 2.06 µM).
For COc1cc(Cc2cnc(N)nc2N)cc(/C=C/C(=O)N2N=Cc3ccccc3C2CCC(F)(F)F)c1OC (racemic), the MIC was 1 µg/mL (≈ 1.85 µM).
Work on COc1cc(Cc2cnc(N)nc2N)cc(/C=C/C(=O)N2N=Cc3ccccc3C2CC(C)C)c1OC (racemic) yielded an MIC of 1 µg/mL (≈ 2 µM).
CCC(CC)C1c2ccccc2C=NN1C(=O)/C=C/c1cc(Cc2cnc(N)nc2N)cc(OC)c1OC (racemic) gave an MIC of 4 µg/mL (≈ 7.77 µM).
With COc1cc(Cc2cnc(N)nc2N)cc(/C=C/C(=O)N2N=Cc3ccccc3C2c2ccccc2C)c1OC (racemic) the MIC was 8 µg/mL (≈ 15 µM).
COc1cc(Cc2cnc(N)nc2N)cc(/C=C/C(=O)N2N=Cc3ccccc3C2c2cc(C)cc(C)c2)c1OC (racemic) showed an MIC of 4 µg/mL (≈ 7.29 µM).
In the case of COc1cc(Cc2cnc(N)nc2N)cc(/C=C/C(=O)N2N=Cc3ccccc3C2c2cccc(F)c2)c1OC (racemic), the MIC is reported as 2 µg/mL (≈ 3.71 µM).
COc1cc(Cc2cnc(N)nc2N)cc(/C=C/C(=O)N2N=Cc3ccccc3C2c2ccc(F)cc2)c1OC (racemic) was tested, and the MIC was 1 µg/mL (≈ 1.86 µM).
COc1cc(Cc2cnc(N)nc2N)cc(/C=C/C(=O)N2N=Cc3ccccc3C2Cc2ccccc2)c1OC (racemic) was tested, and the MIC was 8 µg/mL (≈ 15 µM).
COc1cc(Cc2cnc(N)nc2N)cc(/C=C/C(=O)N2N=Cc3ccccc3C2Cc2ccc(C)cc2)c1OC (racemic) gave an MIC of 4 µg/mL (≈ 7.29 µM).
COc1ccc(CC2c3ccccc3C=NN2C(=O)/C=C/c2cc(Cc3cnc(N)nc3N)cc(OC)c2OC)cc1 (racemic) showed an MIC of 8 µg/mL (≈ 14.2 µM).
In the case of COc1cc(Cc2cnc(N)nc2N)cc(/C=C/C(=O)N2N=Cc3ccccc3C2Cc2ccc(OC(F)(F)F)cc2)c1OC (racemic), the MIC is reported as 4 µg/mL (≈ 6.47 µM).
For COc1cc(Cc2cnc(N)nc2N)cc(/C=C/C(=O)N2N=Cc3ccccc3C2c2ccc(C)cc2)c1OC (racemic), the MIC was 1 µg/mL (≈ 1.87 µM).
Work on COc1cc(Cc2cnc(N)nc2N)cc(/C=C/C(=O)N2N=Cc3ccccc3C2C2CCCCC2)c1OC (racemic) yielded an MIC of 1 µg/mL (≈ 1.9 µM).
In the case of COc1cc(Cc2cnc(N)nc2N)cc(/C=C/C(=O)N2N=Cc3ccccc3C2c2ccccc2)c1OC (racemic), the MIC is reported as 0.375 µg/mL (≈ 0.72 µM).

— ChEMBL document CHEMBL2040814, “Synthesis and biological activity of substituted 2,4-diaminopyrimidines that inhibit Bacillus anthracis” (2012)
